# Experimental data reported in ChEMBL document CHEMBL4130430, “Efficacy of a series of alpha-pyrone derivatives against Leishmania (L.) infantum and Trypanosoma cruzi” (Eur J Med Chem, 2017).
# Activity calls are given as the source filed them. No cut-off for these calls is given here.
# Legend:
# Leishmania infantum [1] = assay: Antileishmanial activity against Leishmania infantum MHOM/BR/1972/LD amastigotes infected in BALB/c mouse peritoneal macrophages assessed as parasite viability after 72 hrs by Giemsa staining-based light microscopic analysis; assay type: functional, organism-based
# Leishmania infantum [2] = assay: Antileishmanial activity against Leishmania infantum MHOM/BR/1972/LD promastigotes assessed as parasite viability up to 200 uM after 48 hrs by MTT assay; assay type: functional, organism-based
# Trypanosoma cruzi [3] = assay: Antitrypanosomal activity against Trypanosoma cruzi Y trypomastigotes assessed as parasite viability up to 200 uM after 24 hrs by resazurin staining-based hemocytometric analysis; assay type: functional, organism-based
# L929 = assay: Cytotoxicity against mouse NCTC-929 cells after 72 hrs by MTT assay; assay type: cell-based; conditions: L929, 72 h
# [4] = Selectivity index, ratio of IC50 for mouse NCTC-929 cells to IC50 for Leishmania infantum MHOM/BR/1972/LD amastigotes infected in BALB/C mouse peritoneal macrophages; assay type: toxicity; conditions: read-out: Ratio IC50
# Leishmania infantum [5] = assay: Antileishmanial activity against Leishmania infantum MHOM/BR/1972/LD amastigotes infected in BALB/c mouse peritoneal macrophages assessed as parasite viability up to 200 uM after 72 hrs by Giemsa staining-based light microscopic analysis; assay type: functional, organism-based
# Trypanosoma cruzi [6] = assay: Antitrypanosomal activity against Trypanosoma cruzi Y trypomastigotes assessed as parasite viability after 24 hrs by resazurin staining-based hemocytometric analysis; assay type: functional, organism-based
# [7] = Selectivity index, ratio of IC50 for mouse NCTC-929 cells to IC50 for Trypanosoma cruzi Y trypomastigotes; assay type: toxicity; conditions: NCTC-929 cells versus Trypanosoma cruzi Y trypomastigotes, read-out: Ratio IC50
# Leishmania infantum [8] = assay: Antileishmanial activity against Leishmania infantum MHOM/BR/1972/LD promastigotes assessed as parasite viability after 48 hrs by MTT assay; assay type: functional, organism-based
# Trypanosoma cruzi [9] = assay: Induction of plasma membrane permeabilization in Trypanosoma cruzi Y trypomastigotes at IC50 to IC90 measured every 1 hr up to 7 hrs by Sytox Green staining-based fluorimetric analysis; assay type: functional, organism-based
# Trypanosoma cruzi [10] = assay: Induction of mitochondrial membrane hyperpolarization in Trypanosoma cruzi Y trypomastigotes assessed as increase in fluorescence at IC50 after 2 hrs by rhodamine123/propidium iodide staining-based flow cytometric analysis relative to control; assay type: functional
# Trypanosoma cruzi [11] = assay: Induction of mitochondrial membrane hyperpolarization in Trypanosoma cruzi Y trypomastigotes assessed as increase in fluorescence at IC90 after 2 hrs by rhodamine123/propidium iodide staining-based flow cytometric analysis relative to control; assay type: functional
# Trypanosoma cruzi [12] = assay: Antitrypanosomal activity against Trypanosoma cruzi Y infected in BALB/c mouse assessed as reduction in blood parasitemia at 30 mg/kg, ip administered every day starting on day 5 post infection measured on day 8 post infection; assay type: functional, organism-based
# Trypanosoma cruzi [13] = assay: Antitrypanosomal activity against Trypanosoma cruzi Y infected in BALB/c mouse assessed as reduction in blood parasitemia at 30 mg/kg/day, ip dosed administered for 10 consecutive days starting on day 5 post infection measured on day 14 post infection relative to control; assay type: functional; set-up: scale not given: the % may be the effect or the level left
# Mus musculus [14] = assay: Toxicity in BALB/c mouse infected with Trypanosoma cruzi Y assessed as mortality at 30 mg/kg/day, ip administered for 10 consecutive days starting on day 5 post infection measured during compound dosing; assay type: organism-based; conditions: in vivo
# Mus musculus [15] = assay: Hepatotoxicity in BALB/c mouse infected with Trypanosoma cruzi Y assessed as hydropic degeneration of hepatocytes at 30 mg/kg/day, ip dosed for 10 consecutive days by hematoxylin and eosin staining-based light microscopic analysis; assay type: toxicity, organism-based; conditions: in vivo
# Trypanosoma cruzi [16] = assay: Antitrypanosomal activity against Trypanosoma cruzi Y intracellular amastigotes infected in BALB/c mouse peritoneal macrophages at 25 uM after 48 hrs by Giemsa staining-based light microscopic analysis; assay type: functional
# Trypanosoma cruzi [17] = assay: Induction of mitochondrial membrane hyperpolarization in Trypanosoma cruzi Y trypomastigotes after 1 hr by rhodamine123/propidium iodide staining-based flow cytometric analysis; assay type: functional, organism-based
# Trypanosoma cruzi [18] = assay: Potency index, ratio of benznidazole IC50 to test compound IC50 for Trypanosoma cruzi Y trypomastigotes; assay type: functional
# Trypanosoma cruzi [19] = assay: Antitrypanosomal activity against Trypanosoma cruzi Y infected in BALB/c mouse assessed as reduction in blood parasitemia at 100 mg/kg, po administered every day starting on day 5 post infection measured on day 8 post infection; assay type: functional; set-up: scale not given: the % may be the effect or the level left
# Mus musculus [20] = assay: Toxicity in BALB/c mouse infected with Trypanosoma cruzi Y assessed as mortality at 100 mg/kg/day, po administered for 10 consecutive days starting on day 5 post infection measured during compound dosing; assay type: organism-based; conditions: in vivo
# Trypanosoma cruzi [21] = assay: Antitrypanosomal activity against Trypanosoma cruzi Y infected in BALB/c mouse assessed as reduction in blood parasitemia at 100 mg/kg/day, […] dosed administered for 10 consecutive days starting on day 5 post infection measured on day 14 post infection relative to control; assay type: functional; set-up: scale not given: the % may be the effect or the level left
IC50 (Trypanosoma cruzi [6]) [µM],Compound,Activity (Leishmania infantum [2]),Activity (Trypanosoma cruzi [3]),IC50 (L929) [µM],Activity (Leishmania infantum [5]),selectivity ratio [7],further results
,Cc1cc(O)c(C(=O)NCCc2ccccc2)c(=O)o1,inactive,inactive,178,,,IC50 (Leishmania infantum [1]): 46.8 µM; selectivity ratio [4]: 3.8
,Cc1cc(O)c(C(=O)Nc2ccc(OCc3ccccc3)cc2)c(=O)o1,inactive,inactive,> 200,inactive,,
,CCCCCC(=O)c1c(O)cc(C)oc1=O,inactive,inactive,> 200,,,IC50 (Leishmania infantum [1]): 13.8 µM; selectivity ratio [4]: > 14.5
,CCCCCCCCCCCCCCNC(=O)c1c(O)cc(C)oc1=O,inactive,inactive,> 200,inactive,,
,Cc1cc(O)c(C(=O)Nc2ccccc2)c(=O)o1,inactive,inactive,> 200,inactive,,
4.4,Cc1cc(O)c(C(=O)CCC2CCCCC2)c(=O)o1,inactive,,117,,26.8,IC50 (Leishmania infantum [1]): 39.2 µM; selectivity ratio [4]: 2.9
72.6,CCCCCCNC(=O)c1c(O)cc(C)oc1=O,inactive,,196,,2.7,IC50 (Leishmania infantum [1]): 54 µM; selectivity ratio [4]: 3.6
66.3,CCCCCCCCCCCCCCCC(=O)c1c(O)cc(C)oc1=O,inactive,,164,inactive,2.5,
1.3,CCCCCCCCCCCC(=O)c1c(O)cc(C)oc1=O,inactive,,90.3,inactive,71.1,
26.6,CCCCCCCCCCCCCCCCc1c(O)cc(C)oc1=O,inactive,,38.2,inactive,1.4,
,CCCCCCCCCCCCCCCCOP(=O)([O-])OCC[N+](C)(C)C [MILTEFOSINE],,,241,,32.6,IC50 (Leishmania infantum [8]): 16.2 µM; IC50 (Leishmania infantum [1]): 7.4 µM
90.5,Cc1cc(O)c(C(=S)NC2CCCCC2)c(=O)o1,inactive,,177,inactive,1.9,
81.4,Cc1cc(O)c(C(=O)NCCCc2ccccc2)c(=O)o1,inactive,,143,inactive,1.7,
,Cc1cc(O)c(C(=O)C2CCCCC2)c(=O)o1,inactive,inactive,> 200,inactive,,
,Cc1cc(O)c(CC2CCCCC2)c(=O)o1,inactive,inactive,> 200,inactive,,
,Cc1cc(O)c(C(=S)Nc2ccccc2)c(=O)o1,inactive,inactive,> 200,,,IC50 (Leishmania infantum [1]): > 100 µM
4.9,CCCCCCCCCCCCCCc1c(O)cc(C)oc1=O,inactive,,24.1,inactive,4.9,
40,CCCCCCCCc1c(O)cc(C)oc1=O,inactive,,145,inactive,3.6,
25.7,CCCCCCCC(=O)c1c(O)cc(C)oc1=O,inactive,,140,inactive,5.4,
17.5,CCCCCCCCCC(=O)c1c(O)cc(C)oc1=O,inactive,,134,inactive,7.6,
78.1,CCCCCCCNC(=O)c1c(O)cc(C)oc1=O,inactive,,187,inactive,2.4,
,CCCCCCc1c(O)cc(C)oc1=O,inactive,inactive,> 200,inactive,,
,Cc1cc(O)c(C(=O)NCc2ccccc2)c(=O)o1,inactive,inactive,> 200,,,IC50 (Leishmania infantum [1]): 52.8 µM; selectivity ratio [4]: 5
,Cc1cc(O)c(C(=O)Nc2ccc3c(c2)OCO3)c(=O)o1,inactive,inactive,> 200,inactive,,
32.2,Cc1cc(O)c(CCC2CCCCC2)c(=O)o1,inactive,,109,inactive,3.4,
,CCCCCCCCCCc1c(O)cc(C)oc1=O,,inactive,56,inactive,,IC50 (Leishmania infantum [8]): 118 µM
16.1,CCCCCCCCCCCCc1c(O)cc(C)oc1=O,,,57.2,inactive,3.5,IC50 (Leishmania infantum [8]): 138 µM

Compound,IC50 (Trypanosoma cruzi [6]) [µM],Activity (Leishmania infantum [2]),Activity (Trypanosoma cruzi [3]),IC50 (L929) [µM],Activity (Leishmania infantum [5]),selectivity ratio [7],further results
CCCCCCCCCCCCCC(=O)c1c(O)cc(C)oc1=O,2.6,inactive,,> 200,inactive,> 77.5,Activity (Trypanosoma cruzi [9]): inactive; Activity (Trypanosoma cruzi [10]): 25%; Activity (Trypanosoma cruzi [11]): 26%; Activity (Trypanosoma cruzi [12]): inactive; Activity (Trypanosoma cruzi [13]): 55%; Activity (Mus musculus [14]): Non-Toxic; Activity (Mus musculus [15]): Non-Toxic; Activity (Trypanosoma cruzi [16]): 14%; Activity (Trypanosoma cruzi [17]): Dose-dependent effect; Ratio IC50 (Trypanosoma cruzi [18]): 6
O=C(Cn1ccnc1[N+](=O)[O-])NCc1ccccc1 [BENZNIDAZOLE],16.2,,,> 200,,> 36,Activity (Trypanosoma cruzi [19]): 100%; Activity (Mus musculus [20]): Non-Toxic; Activity (Trypanosoma cruzi [21]): 100%
